pIC50: −log10 of the molar value.

The target in the assay is T1, BACE2 (Rattus norvegicus, UniProt Q6IE75).
T1 construct: endogenous cellular BACE2 in the Ins1e rat cell line; endogenous in cells; host or cells: INS-TMEM27 (INS1e-derived rat beta-cell line with doxycycline-inducible full-length hTMEM27)
T1 sequence (Q6IE75 63-514): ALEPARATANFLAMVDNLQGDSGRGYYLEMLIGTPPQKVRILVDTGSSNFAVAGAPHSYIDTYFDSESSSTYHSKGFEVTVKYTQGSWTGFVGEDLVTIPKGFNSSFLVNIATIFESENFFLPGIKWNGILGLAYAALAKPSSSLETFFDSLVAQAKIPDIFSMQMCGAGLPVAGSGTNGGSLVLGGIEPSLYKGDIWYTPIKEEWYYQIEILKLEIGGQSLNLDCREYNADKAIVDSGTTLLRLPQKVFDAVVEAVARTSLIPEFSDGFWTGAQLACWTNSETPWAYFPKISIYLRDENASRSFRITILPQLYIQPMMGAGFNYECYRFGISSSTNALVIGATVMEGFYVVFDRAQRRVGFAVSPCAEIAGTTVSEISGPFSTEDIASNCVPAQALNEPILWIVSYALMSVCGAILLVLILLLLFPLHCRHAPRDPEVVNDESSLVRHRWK
Briefly: Assay for BACE inhibition by measuring cellular TMEM27 cleavage (INS-TMEM27 cells, ELISA of shed TMEM27). As to conditions: inhibition of human TMEM27 cleavage by endogenous cellular BACE2 in INS1e-derived INS-TMEM27 rat cell line; ELISA of shed TMEM27 in supernatant. In kind it is cell-based. The text has this: Assay for […] Inhibition by Measuring Cellular TMEM27 Cleavage
This assay uses the principle of inhibition of human TMEM27 cleavage by endogenous cellular BACE2 in the Ins1e rat cell line and shedding from the cell surface into the culture medium, followed by detection in an ELISA assay. Inhibition of BACE2 prevents the cleavage and shedding in a dose-dependent manner.
The stable cell line “INS-TMEM27” represents an INS1e-derived cell line with inducible expression (using the TetOn system) of full-length hTMEM27 in a doxycycline-dependent manner. The cells were cultured throughout the experiment in RPMI1640+Glutamax (Invitrogen) Penicillin/Streptomycin, 10% Fetal bovine serum, 100 mM pyruvate, […] beta-mercatptoethanol, 100 micrograms/ml G418 and 100 microgram/ml hygromycin and were grown in adherent culture at 37° C. in a standard CO2 cell culture incubator.
INS-TMEM27 cells were seeded in 96-well plates. After 2 days in culture, BACE2 inhibitor was added in a range of concentrations as required by the assay and after a further two hours, doxycycline was added to a final concentration of 500 ng/ml. The cells were incubated for a further 46 hours and the supernatant harvested for detection of shed TMEM27.
An ELISA assay (using a pair of mouse anti-human-TMEM27 antibodies, raised against the extracellular domain of TMEM27) was used for detection of TMEM27 in the culture medium. An IC50 for BACE2 inhibition was calculated using the ELISA readout for each inhibitor concentration with standard curve-fitting software.
The inhibitory activity, given as an IC50 value, of the compounds of Examples 1 to 32 and 34 to 74 were as follows.

In general, pIC50 refers to −log10 of the IC50, conventionally taken in molar units. With `COc1cccc(CNC[C@@H](O)[C@H](Cc2ccccc2)NC(=O)c2cccc(C(=O)N(C)Cc3nc(C)cs3)c2)c1` [Example 3, N-[(1S,2R)-1-Benzyl-2-hydroxy-3-(3-methoxy-benzylamino)-propyl]-N′-methyl-N′-(4-methyl-thiazol-2-ylmethyl)-isophthalamide], the pIC50 was 6.76.

Turning to `Cc1noc(C2CCCN2C(=O)c2cccc(C(=O)N[C@@H](Cc3ccccc3)[C@H](O)CNCc3cccc(C(F)(F)F)c3)c2)n1` (stereo partly drawn) [Example 17, N-[(1S,2R)-1-Benzyl-2-hydroxy-3-(3-trifluoromethyl-benzylamino)-propyl]-3-[2-(3-methyl-[1,2,4]oxadiazol-5-yl)-pyrrolidine-1-carbonyl]-benzamide], the pIC50 was 6.67.

`COc1cccc(CNC[C@@H](O)[C@H](Cc2ccccc2)NC(=O)c2cccc(C(=O)N(C)Cc3ccccn3)c2)c1` [Example 28, N-[(1S,2R)-1-Benzyl-2-hydroxy-3-(3-methoxy-benzylamino)-propyl]-N′-methyl-N′-pyridin-2-ylmethyl-isophthalamide] gave a pIC50 of 6.29.

Molecule `O=C(N[C@@H](Cc1ccccc1)[C@H](O)CNCc1cccc(C(F)(F)F)c1)c1cccc(C(=O)N2CCCC2C2CCCCC2)c1` (stereo partly drawn) [Example 69, N-[(1S,2R)-1-Benzyl-2-hydroxy-3-(3-trifluoromethyl-benzylamino)-propyl]-3-(2-cyclohexyl-pyrrolidine-1-carbonyl)-benzamide] gave a pIC50 of 8.15.

With `CCn1cc(CNC[C@@H](O)[C@H](Cc2ccccc2)NC(=O)c2cc(C)cc(C(=O)N3CCC[C@@H]3c3nc(C)cs3)c2)cn1` [Example 34, N-{(1S,2R)-1-Benzyl-3-[(1-ethyl-1H-pyrazol-4-ylmethyl)-amino]-2-hydroxy-propyl}-3-methyl-5-[(R)-2-(4-methyl-thiazol-2-yl)-pyrrolidine-1-carbonyl]-benzamide], the pIC50 was 6.84.

`Cc1cc(C(=O)N[C@@H](Cc2ccccc2)[C@H](O)CNCc2cccc(OC(F)(F)F)c2)cc(C(=O)N(C)Cc2ccccn2)c1` [Example 44, N-[(1S,2R)-1-Benzyl-2-hydroxy-3-(3-trifluoromethoxy-benzylamino)-propyl]-5,N′-dimethyl-N′-pyridin-2-ylmethyl-isophthalamide] had a pIC50 of 7.31.

Consider `COc1cccc(CNC[C@@H](O)[C@H](Cc2ccccc2)NC(=O)c2cccc(C(=O)N3CCCC3c3cccs3)c2)c1` (stereo partly drawn) [Example 30, N-[(1S,2R)-1-Benzyl-2-hydroxy-3-(3-methoxy-benzylamino)-propyl]-3-(2-thiophen-2-yl-pyrrolidine-1-carbonyl)-benzamide], for which the pIC50 is 7.80.

Molecule `Cc1cc(C(=O)N[C@@H](Cc2ccccc2)[C@H](O)CNCc2cccc(OC(F)(F)F)c2)cc(C(=O)N2CCC[C@@H]2c2nc(C)cs2)c1` [Example 10, N-[(1S,2R)-1-Benzyl-2-hydroxy-3-(3-trifluoromethoxy-benzylamino)-propyl]-3-methyl-5-[(R)-2-(4-methyl-thiazol-2-yl)-pyrrolidine-1-carbonyl]-benzamide] had a pIC50 of 7.85.

As to `Cn1nccc1C1CCCN1C(=O)c1cccc(C(=O)N[C@@H](Cc2ccccc2)[C@H](O)CNCc2cccc(C(F)(F)F)c2)c1` (stereo partly drawn) [Example 15, N-[(1S,2R)-1-Benzyl-2-hydroxy-3-(3-trifluoromethyl-benzylamino)-propyl]-3-[2-(2-methyl-2H-pyrazol-3-yl)-pyrrolidine-1-carbonyl]-benzamide], the negative logarithm of the IC50 (pIC50) is 6.48.

`CCn1cc(CNC[C@@H](O)[C@H](Cc2ccccc2)NC(=O)c2cc(C)cc(C(=O)N3CCCC3c3ccccc3)c2)cn1` (stereo partly drawn) [Example 36, N-{(1S,2R)-1-Benzyl-3-[(1-ethyl-1H-pyrazol-4-ylmethyl)-amino]-2-hydroxy-propyl}-3-methyl-5-(2-phenyl-pyrrolidine-1-carbonyl)-benzamide]: the pIC50 is 9.00.

`O=C(N[C@@H](Cc1ccccc1)[C@H](O)CNCc1cccc(C(F)(F)F)c1)c1cccc(C(=O)N2CCCC2c2ccccc2)c1` (stereo partly drawn) [Example 12, N-[(1S,2R)-1-Benzyl-2-hydroxy-3-(3-trifluoromethyl-benzylamino)-propyl]-3-(2-phenyl-pyrrolidine-1-carbonyl)-benzamide] gave a negative logarithm of the IC50 (pIC50) of 7.12.

The molecule `CC1(C)[C@@H]2CC[C@@]1(C)CN(C(=O)c1cccc(C(=O)N[C@@H](Cc3ccccc3)[C@H](O)CNCc3cccc(OC(F)(F)F)c3)c1)C2` [Example 8, N-[(1S,2R)-1-Benzyl-2-hydroxy-3-(3-trifluoromethoxy-benzylamino)-propyl]-3-((1R,5S)-1,8,8-trimethyl-3-aza-bicyclo[3.2.1]octane-3-carbonyl)-benzamide] had a pIC50 of 6.09.

Turning to `O=C(N[C@@H](Cc1ccccc1)[C@H](O)CNCc1cccc(C(F)(F)F)c1)c1cccc(C(=O)N2CCC[C@@H]2c2ccccc2)c1` [Example 66, N-[(1S,2R)-1-Benzyl-2-hydroxy-3-(3-trifluoromethyl-benzylamino)-propyl]-3-((R)-2-phenyl-pyrrolidine-1-carbonyl)-benzamide], the negative logarithm of the IC50 (pIC50) was 6.50.

Consider `O=C(N[C@@H](Cc1ccccc1)[C@H](O)CNCc1cccc(C(F)(F)F)c1)c1cccc(C(=O)N2CCC[C@H]2c2ccc(F)cc2)c1` [Example 67, N-[(1S,2R)-1-Benzyl-2-hydroxy-3-(3-trifluoromethyl-benzylamino)-propyl]-3-[(S)-2-(4-fluoro-phenyl)-pyrrolidine-1-carbonyl]-benzamide], for which the pIC50 was 8.40.

As to `CCn1cc(CNC[C@@H](O)[C@H](Cc2ccccc2)NC(=O)c2cccc(C(=O)N3CCCC3c3ccccc3)c2)cn1` (stereo partly drawn) [Example 23, N-{(1S,2R)-1-Benzyl-3-[(1-ethyl-1H-pyrazol-4-ylmethyl)-amino]-2-hydroxy-propyl}-3-(2-phenyl-pyrrolidine-1-carbonyl)-benzamide], the pIC50 is 7.24.

With `COc1cccc(CNC[C@@H](O)[C@H](Cc2ccccc2)NC(=O)c2cccc(C(=O)N3CCC[C@@H]3c3nc(C)cs3)c2)c1` [Example 20, N-[(1S,2R)-1-Benzyl-2-hydroxy-3-(3-methoxy-benzylamino)-propyl]-3-[(R)-2-(4-methyl-thiazol-2-yl)-pyrrolidine-1-carbonyl]-benzamide], the negative-log IC50 (pIC50) was 6.84.

With `O=C(NCc1ccccn1)c1cccc(C(=O)N[C@@H](Cc2ccccc2)[C@H](O)CNCc2cccc(C(F)(F)F)c2)c1` [Example 7, N-[(1S,2R)-1-Benzyl-2-hydroxy-3-(3-trifluoromethyl-benzylamino)-propyl]-N′-pyridin-2-ylmethyl-isophthalamide], the negative-log IC50 (pIC50) was 6.32.

In turn, `Cc1cccc(C2CCCN2C(=O)c2cccc(C(=O)N[C@@H](Cc3ccccc3)[C@H](O)CNCc3cccc(C(F)(F)F)c3)c2)c1` (stereo partly drawn) [Example 58, N-[(1S,2R)-1-Benzyl-2-hydroxy-3-(3-trifluoromethyl-benzylamino)-propyl]-3-(2-m-tolyl-pyrrolidine-1-carbonyl)-benzamide] had a pIC50 of 7.05.

In the case of `Cc1cc(C2CCCN2C(=O)c2cccc(C(=O)N[C@@H](Cc3ccccc3)[C@H](O)CNCc3cccc(C(F)(F)F)c3)c2)ccc1Cl` (stereo partly drawn) [Example 60, N-[(1S,2R)-1-Benzyl-2-hydroxy-3-(3-trifluoromethyl-benzylamino)-propyl]-3-[2-(4-chloro-3-methyl-phenyl)-pyrrolidine-1-carbonyl]-benzamide], the negative-log IC50 (pIC50) was 6.57.

The molecule `Cc1csc(CN(C)C(=O)c2cc(C(=O)N[C@@H](Cc3ccccc3)[C@H](O)CNCc3cncc(C(C)(C)F)c3)cc(N(C)S(C)(=O)=O)c2)n1` [Example 74, N-((1S,2R)-1-Benzyl-3-{[5-(1-fluoro-1-methyl-ethyl)-pyridin-3-ylmethyl]-amino}-2-hydroxy-propyl)-5-(methanesulfonyl-methyl-amino)-N′-methyl-N′-(4-methyl-thiazol-2-ylmethyl)-isophthalamide] showed a pIC50 of 6.59.

For the molecule `CC(=O)C1CC(c2ccc(F)cc2)N(C(=O)c2cccc(C(=O)N[C@@H](Cc3ccccc3)[C@H](O)CNCc3cccc(C(F)(F)F)c3)c2)C1` (stereo partly drawn) [Example 64, 3-[4-Acetyl-2-(4-fluoro-phenyl)-pyrrolidine-1-carbonyl]-N-[(1S,2R)-1-benzyl-2-hydroxy-3-(3-trifluoromethyl-benzylamino)-propyl]-benzamide], the pIC50 was 7.59.
